In PubChem BioAssay (NCI):
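Cultured in 96-well plates, cells were exposed to test compound for 48 hours across five concentrations. TGI: concentration producing complete growth inhibition.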

Experiments:
Test in all cases: NCI anticancer screen, dose series, 48 h
786-0 renal = tested on: 786-0 renal
A549 NSCLC = tested on: A549 NSCLC
ACHN renal = tested on: ACHN renal
CAKI-1 renal = tested on: CAKI-1 renal
CCRF-CEM leukemia = tested on: CCRF-CEM leukemia
COLO 205 colon = tested on: COLO 205 colon
DLD-1 colon = tested on: DLD-1 colon
DMS 114 small cell lung = tested on: DMS 114 small cell lung
DMS 273 small cell lung = tested on: DMS 273 small cell lung
EKVX NSCLC = tested on: EKVX NSCLC
HCC-2998 colon = tested on: HCC-2998 colon
HCT-116 colon = tested on: HCT-116 colon
HCT-15 colon = tested on: HCT-15 colon
HL-60(TB) leukemia = tested on: HL-60(TB) leukemia
HOP-62 NSCLC = tested on: HOP-62 NSCLC
HT29 colon = tested on: HT29 colon
IGROV1 ovarian = tested on: IGROV1 ovarian
K-562 leukemia = tested on: K-562 leukemia
KM12 colon = tested on: KM12 colon
KM20L2 colon = tested on: KM20L2 colon
LOX IMVI melanoma = tested on: LOX IMVI melanoma
LXFL 529 NSCLC = tested on: LXFL 529 NSCLC
M14 melanoma = tested on: M14 melanoma
M19-MEL melanoma = tested on: M19-MEL melanoma
MALME-3M melanoma = tested on: MALME-3M melanoma
MOLT-4 leukemia = tested on: MOLT-4 leukemia
NCI-H226 lung = tested on: NCI-H226 lung
NCI-H23 lung = tested on: NCI-H23 lung
NCI-H460 lung = tested on: NCI-H460 lung
NCI-H522 lung = tested on: NCI-H522 lung
OVCAR-3 ovarian = tested on: OVCAR-3 ovarian
OVCAR-4 ovarian = tested on: OVCAR-4 ovarian
OVCAR-5 ovarian = tested on: OVCAR-5 ovarian
OVCAR-8 ovarian = tested on: OVCAR-8 ovarian
RPMI-8226 leukemia = tested on: RPMI-8226 leukemia
RXF 393 renal = tested on: RXF 393 renal
RXF-631 renal = tested on: RXF-631 renal
SF-268 CNS = tested on: SF-268 CNS
SF-295 CNS = tested on: SF-295 CNS
SF-539 CNS = tested on: SF-539 CNS
SK-MEL-2 melanoma = tested on: SK-MEL-2 melanoma
SK-MEL-28 melanoma = tested on: SK-MEL-28 melanoma
SK-OV-3 ovarian = tested on: SK-OV-3 ovarian
SN12C renal = tested on: SN12C renal
SNB-19 CNS = tested on: SNB-19 CNS
SNB-75 CNS = tested on: SNB-75 CNS
SR leukemia = tested on: SR leukemia
SW-620 colon = tested on: SW-620 colon
TK-10 renal = tested on: TK-10 renal
U251 CNS = tested on: U251 CNS
UACC-257 melanoma = tested on: UACC-257 melanoma
UACC-62 melanoma = tested on: UACC-62 melanoma
UO-31 renal = tested on: UO-31 renal
XF 498 CNS = tested on: XF 498 CNS
HOP-92 NSCLC = tested on: HOP-92 NSCLC
SK-MEL-5 melanoma = tested on: SK-MEL-5 melanoma
SNB-78 CNS = tested on: SNB-78 CNS

Structure (SMILES): CC(=O)COC(=O)CC(C)=O
- TGI (786-0 renal): > 100 µM
- TGI (A549 NSCLC): > 100 µM
- TGI (ACHN renal): > 100 µM
- TGI (CAKI-1 renal): > 100 µM
- TGI (CCRF-CEM leukemia): > 100 µM
- TGI (COLO 205 colon): > 100 µM
- TGI (DLD-1 colon): > 100 µM
- TGI (DMS 114 small cell lung): > 100 µM
- TGI (DMS 273 small cell lung): > 100 µM
- TGI (EKVX NSCLC): > 100 µM
- TGI (HCC-2998 colon): > 100 µM
- TGI (HCT-116 colon): > 100 µM
- TGI (HCT-15 colon): > 100 µM
- TGI (HL-60(TB) leukemia): > 100 µM
- TGI (HOP-62 NSCLC): > 100 µM
- TGI (HT29 colon): > 100 µM
- TGI (IGROV1 ovarian): > 100 µM
- TGI (K-562 leukemia): > 100 µM
- TGI (KM12 colon): > 100 µM
- TGI (KM20L2 colon): > 100 µM
- TGI (LOX IMVI melanoma): > 100 µM
- TGI (LXFL 529 NSCLC): > 100 µM
- TGI (M14 melanoma): > 100 µM
- TGI (M19-MEL melanoma): > 100 µM
- TGI (MALME-3M melanoma): > 100 µM
- TGI (MOLT-4 leukemia): > 100 µM
- TGI (NCI-H226 lung): > 100 µM
- TGI (NCI-H23 lung): > 100 µM
- TGI (NCI-H460 lung): > 100 µM
- TGI (NCI-H522 lung): > 100 µM
- TGI (OVCAR-3 ovarian): > 100 µM
- TGI (OVCAR-4 ovarian): > 100 µM
- TGI (OVCAR-5 ovarian): > 100 µM
- TGI (OVCAR-8 ovarian): > 100 µM
- TGI (RPMI-8226 leukemia): > 100 µM
- TGI (RXF 393 renal): > 100 µM
- TGI (RXF-631 renal): > 100 µM
- TGI (SF-268 CNS): > 100 µM
- TGI (SF-295 CNS): > 100 µM
- TGI (SF-539 CNS): > 100 µM
- TGI (SK-MEL-2 melanoma): > 100 µM
- TGI (SK-MEL-28 melanoma): > 100 µM
- TGI (SK-OV-3 ovarian): > 100 µM
- TGI (SN12C renal): > 100 µM
- TGI (SNB-19 CNS): > 100 µM
- TGI (SNB-75 CNS): > 100 µM
- TGI (SR leukemia): > 100 µM
- TGI (SW-620 colon): > 100 µM
- TGI (TK-10 renal): > 100 µM
- TGI (U251 CNS): > 100 µM
- TGI (UACC-257 melanoma): > 100 µM
- TGI (UACC-62 melanoma): > 100 µM
- TGI (UO-31 renal): > 100 µM
- TGI (XF 498 CNS): > 100 µM

Structure (SMILES): CCOC(=O)C(C(C)=O)C1CC=CC1 (configuration not stated)
- TGI (786-0 renal): > 100 µM
- TGI (A549 NSCLC): > 100 µM
- TGI (ACHN renal): > 100 µM
- TGI (CAKI-1 renal): > 100 µM
- TGI (CCRF-CEM leukemia): > 100 µM
- TGI (COLO 205 colon): > 100 µM
- TGI (DLD-1 colon): > 100 µM
- TGI (DMS 114 small cell lung): > 100 µM
- TGI (DMS 273 small cell lung): > 100 µM
- TGI (EKVX NSCLC): > 100 µM
- TGI (HCC-2998 colon): > 100 µM
- TGI (HCT-116 colon): > 100 µM
- TGI (HCT-15 colon): > 100 µM
- TGI (HL-60(TB) leukemia): > 100 µM
- TGI (HOP-62 NSCLC): > 100 µM
- TGI (HOP-92 NSCLC): > 100 µM
- TGI (HT29 colon): > 100 µM
- TGI (IGROV1 ovarian): > 100 µM
- TGI (K-562 leukemia): > 100 µM
- TGI (KM12 colon): > 100 µM
- TGI (KM20L2 colon): > 100 µM
- TGI (LOX IMVI melanoma): > 100 µM
- TGI (LXFL 529 NSCLC): > 100 µM
- TGI (M14 melanoma): > 100 µM
- TGI (MALME-3M melanoma): > 100 µM
- TGI (MOLT-4 leukemia): > 100 µM
- TGI (NCI-H226 lung): > 100 µM
- TGI (NCI-H460 lung): > 100 µM
- TGI (OVCAR-3 ovarian): > 100 µM
- TGI (OVCAR-4 ovarian): > 100 µM
- TGI (OVCAR-5 ovarian): > 100 µM
- TGI (OVCAR-8 ovarian): > 100 µM
- TGI (RPMI-8226 leukemia): > 100 µM
- TGI (RXF 393 renal): > 100 µM
- TGI (RXF-631 renal): > 100 µM
- TGI (SF-295 CNS): > 100 µM
- TGI (SK-MEL-2 melanoma): > 100 µM
- TGI (SK-MEL-28 melanoma): > 100 µM
- TGI (SK-MEL-5 melanoma): > 100 µM
- TGI (SK-OV-3 ovarian): > 100 µM
- TGI (SN12C renal): > 100 µM
- TGI (SNB-19 CNS): > 100 µM
- TGI (SNB-75 CNS): > 100 µM
- TGI (SNB-78 CNS): > 100 µM
- TGI (SW-620 colon): > 100 µM
- TGI (TK-10 renal): > 100 µM
- TGI (U251 CNS): > 100 µM
- TGI (UACC-257 melanoma): > 100 µM
- TGI (UACC-62 melanoma): > 100 µM
- TGI (UO-31 renal): > 100 µM
- TGI (XF 498 CNS): > 100 µM

Structure (SMILES): COC(=O)C1=C(C(=O)OC)C2(C)OC1C(=O)C21CC1 (configuration not stated)
- TGI (786-0 renal): > 100 µM
- TGI (A549 NSCLC): > 100 µM
- TGI (ACHN renal): 41.6 µM
- TGI (CAKI-1 renal): 44.1 µM
- TGI (CCRF-CEM leukemia): 39.6 µM
- TGI (COLO 205 colon): 56.5 µM
- TGI (DLD-1 colon): 51.1 µM
- TGI (DMS 114 small cell lung): 42.9 µM
- TGI (DMS 273 small cell lung): 40.2 µM
- TGI (EKVX NSCLC): > 100 µM
- TGI (HCC-2998 colon): 53 µM
- TGI (HCT-116 colon): 43.4 µM
- TGI (HCT-15 colon): 44.6 µM
- TGI (HL-60(TB) leukemia): 39.6 µM
- TGI (HOP-62 NSCLC): > 100 µM
- TGI (HT29 colon): 37 µM
- TGI (IGROV1 ovarian): 57.7 µM
- TGI (K-562 leukemia): 69.1 µM
- TGI (KM12 colon): > 100 µM
- TGI (KM20L2 colon): 65.7 µM
- TGI (LOX IMVI melanoma): 45.3 µM
- TGI (LXFL 529 NSCLC): 35.1 µM
- TGI (M14 melanoma): 34.9 µM
- TGI (M19-MEL melanoma): > 100 µM
- TGI (MALME-3M melanoma): 70.6 µM
- TGI (MOLT-4 leukemia): 44.9 µM
- TGI (NCI-H226 lung): > 100 µM
- TGI (NCI-H23 lung): 51.2 µM
- TGI (NCI-H460 lung): 63.5 µM
- TGI (NCI-H522 lung): 25.9 µM
- TGI (OVCAR-3 ovarian): 55.8 µM
- TGI (OVCAR-4 ovarian): 25.1 µM
- TGI (OVCAR-5 ovarian): > 100 µM
- TGI (OVCAR-8 ovarian): 52.8 µM
- TGI (RPMI-8226 leukemia): 42.7 µM
- TGI (RXF 393 renal): 32.3 µM
- TGI (RXF-631 renal): 36.1 µM
- TGI (SF-268 CNS): > 100 µM
- TGI (SF-295 CNS): > 100 µM
- TGI (SF-539 CNS): 41.5 µM
- TGI (SK-MEL-2 melanoma): > 100 µM
- TGI (SK-MEL-5 melanoma): > 100 µM
- TGI (SK-OV-3 ovarian): > 100 µM
- TGI (SN12C renal): 43.4 µM
- TGI (SNB-19 CNS): > 100 µM
- TGI (SNB-75 CNS): 99.7 µM
- TGI (SR leukemia): 44.6 µM
- TGI (SW-620 colon): 38.6 µM
- TGI (U251 CNS): > 100 µM
- TGI (UACC-257 melanoma): > 100 µM
- TGI (UO-31 renal): > 100 µM
- TGI (XF 498 CNS): 26.5 µM
